From the NIST ThermoML archive (doi:10.1021/je100909b)

Assay: mn = molality of the nth substance listed, in mol/kg
Details: 101 kPa, Liquid; for mass density: Vibrating tube method

CC(C)C[C@H](N)C(=O)O [L-leucine] + O
speed of sound [m/s], Sing-around technique in a fixed-path interferometer
Details	m1 = 0.01941	m1 = 0.02155	m1 = 0.0281	m1 = 0.03296	m1 = 0.04083	m1 = 0.05231	m1 = 0.06632	m1 = 0.07033
288.15 K	–	1468.6	1469.5	1470.1	1471.1	–	1474.4	1475
298.15 K	1498.8	–	1499.9	1500.5	–	1502.7	1504.4	–
308.15 K	–	–	–	1523.2	1524.1	1525.2	1526.7	1527.1
318.15 K	–	–	1539.1	1539.5	1540.2	1541.3	1542.6	1543

Details	viscosity [mPa·s]
288.15 K, m1 = 0.01977	1.151
288.15 K, m1 = 0.02401	1.153
288.15 K, m1 = 0.03189	1.158
288.15 K, m1 = 0.04067	1.163
288.15 K, m1 = 0.04511	1.166
288.15 K, m1 = 0.0503	1.169
298.15 K, m1 = 0.02228	0.9009
298.15 K, m1 = 0.03694	0.9076
298.15 K, m1 = 0.04045	0.9094
298.15 K, m1 = 0.05353	0.9156
298.15 K, m1 = 0.06724	0.9222
298.15 K, m1 = 0.08113	0.928
308.15 K, m1 = 0.0193	0.7262
308.15 K, m1 = 0.02231	0.7271
308.15 K, m1 = 0.03116	0.7301
308.15 K, m1 = 0.03988	0.7332
308.15 K, m1 = 0.04441	0.7347
308.15 K, m1 = 0.05005	0.7366
318.15 K, m1 = 0.01898	0.6012
318.15 K, m1 = 0.02214	0.602
318.15 K, m1 = 0.03098	0.6043
318.15 K, m1 = 0.03968	0.6064
318.15 K, m1 = 0.04439	0.6076
318.15 K, m1 = 0.04995	0.6092

CC(C)[C@H](N)C(=O)O [L-valine] + O
speed of sound [m/s], Sing-around technique in a fixed-path interferometer
Details	m1 = 0.0197	m1 = 0.03559	m1 = 0.04365	m1 = 0.05244	m1 = 0.0586	m1 = 0.07142	m1 = 0.08303
288.15 K	–	1469.6	1470.5	1471.4	1472	1473.4	1474.6
298.15 K	–	1500.1	1500.9	1501.7	1502.3	1503.6	1504.7
308.15 K	–	1523	1523.8	1524.6	1525.1	1526.3	1527.3
318.15 K	1538.1	–	1540	1540.7	1541.2	1542.3	1543.2

Details	viscosity [mPa·s]
288.15 K, m1 = 0.02209	1.15
288.15 K, m1 = 0.03342	1.157
288.15 K, m1 = 0.04176	1.161
288.15 K, m1 = 0.04553	1.163
288.15 K, m1 = 0.0505	1.166
288.15 K, m1 = 0.05576	1.169
298.15 K, m1 = 0.02235	0.8987
298.15 K, m1 = 0.03324	0.9027
298.15 K, m1 = 0.04271	0.9064
298.15 K, m1 = 0.04775	0.9082
298.15 K, m1 = 0.05319	0.9101
298.15 K, m1 = 0.05741	0.9118
308.15 K, m1 = 0.02114	0.7258
308.15 K, m1 = 0.03147	0.7288
308.15 K, m1 = 0.04157	0.7319
308.15 K, m1 = 0.04549	0.7331
308.15 K, m1 = 0.04791	0.7337
308.15 K, m1 = 0.05464	0.7358
318.15 K, m1 = 0.02149	0.6014
318.15 K, m1 = 0.03166	0.6038
318.15 K, m1 = 0.04179	0.6061
318.15 K, m1 = 0.04524	0.6068
318.15 K, m1 = 0.0474	0.6073
318.15 K, m1 = 0.05407	0.609

[Cl][Cd][Cl] [cadmium chloride] + O
Details	mass density [kg/m3]	speed of sound [m/s]	viscosity [mPa·s]
288.15 K, m1 = 0.1	1015.69	1479	1.144
288.15 K, m1 = 0.5	1077.05	1484	1.223
288.15 K, m1 = 1	1149.37	1492.8	1.334
288.15 K, m1 = 1.5	1205.71	1496.2	1.472
298.15 K, m1 = 0.1	1012.89	1501.6	0.926
298.15 K, m1 = 0.5	1072.65	1507.2	1.036
298.15 K, m1 = 1	1140.72	1511.4	1.16
298.15 K, m1 = 1.5	1199.85	1514.4	1.226
308.15 K, m1 = 0.1	1009.59	1522.4	0.7258
308.15 K, m1 = 0.5	1068.5	1525.2	0.8259
308.15 K, m1 = 1	1135.37	1527.4	0.9138
308.15 K, m1 = 1.5	1193.02	1530.2	0.9824
318.15 K, m1 = 0.1	1005.51	1538.6	0.6097
318.15 K, m1 = 0.5	1063.8	1541.8	0.6739
318.15 K, m1 = 1	1129.17	1543.2	0.7467
318.15 K, m1 = 1.5	1186	1546.2	0.8197

O [water] + [Cl][Cd][Cl]
m2 = 0
Details	viscosity [mPa·s]
288.15 K	1.138
298.15 K	0.8903
308.15 K	0.7195
318.15 K	0.5963
